Measured values taken from patent US6355799B1, “Substituted benzene compounds, process for their preparation, and herbicidal and defoliant compositions containing them” (ISK Americas Incorporated, priority 1997, dated 2002).

Tests used:
Format in all cases: in vivo
[1] = test system: large crabgrass (Digitaria sanguinalis, DIGSA); assay: Pre-emerge test, greenhouse herbicide activity screening; settings: pre-emerge, 14 days after application, rating scale 0-100
Procedure, shortened: (§1)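 Compounds in acetone were track-sprayed at 15-1000 g ai/ha (187 l/ha) on sandy loam pots: pre-emerge one day after seeding, post-emerge at 2-3 leaf stage with 0.25% v/v non-ionic surfactant. Phytotoxicity was rated 14 days later on a 0 (no damage) to 100 (complete death) scale.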

[2] = test system: green foxtail (Setaria viridis, SETVI); assay: as above; settings: pre-emerge, 14 days after application, rating scale 0-100
Procedure, shortened: as §1

[3] = test system: barnyardgrass (Echinochloa crus-galli, ECHCG); assay: as above; settings: pre-emerge, 14 days after application, rating scale 0-100
Procedure, shortened: as §1

[4] = test system: johnsongrass (Sorghum halepense, SORHA); assay: as above; settings: pre-emerge, 14 days after application, rating scale 0-100
Procedure, shortened: as §1

[5] = test system: sicklepod (Cassia obtusifolia, CASOB); assay: as above; settings: pre-emerge, 14 days after application, rating scale 0-100
Procedure, shortened: as §1

[6] = test system: lambsquarters (Chenopodium album, CHEAL); assay: as above; settings: pre-emerge, 14 days after application, rating scale 0-100
Procedure, shortened: as §1

[7] = test system: velvetleaf (Abutilon theophrasti, ABUTH); assay: as above; settings: pre-emerge, 14 days after application, rating scale 0-100
Procedure, shortened: as §1

[8] = test system: ivyleaf morningglory (Ipomoea hederacea, IPOHE); assay: as above; settings: pre-emerge, 14 days after application, rating scale 0-100
Procedure, shortened: as §1

[9] = test system: upland rice (Oryza sp., var. Tebonnet, RICE); assay: Pre-emerge test, crop safety; settings: pre-emerge, 14 days after application, rating scale 0-100
Procedure, shortened: (§2)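 Fourteen days after spraying, crop and weed injury was graded visually from 0, no effect, to 100, every plant dead. Test substances were dissolved in acetone and applied at 15–1000 g ai/ha with a flat-fan nozzle. Application was either pre-emergence, one day after sowing, or post-emergence at the 2–3 leaf stage.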

[10] = test system: field corn (Zea mays L., var. Dekalb 535, CORN); assay: Pre-emerge test, crop safety; settings: pre-emerge, 14 days after application, rating scale 0-100
Procedure, shortened: as §2

[11] = test system: redroot pigweed (Amaranthus retroflexus, AMARE); assay: Pre-emerge test, greenhouse herbicide activity screening; settings: pre-emerge, 14 days after application, rating scale 0-100
Procedure, shortened: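 Rating: 0–100 visual injury, 14 DAA. Application: acetone, 187 l/ha, 15–1000 g ai/ha, flat-fan track sprayer with nozzle 40–45 cm above soil or canopy. Post-emerge runs used 0.25% v/v surfactant on 2–3 leaf plants.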

[12] = test system: upland rice (Oryza sp., var. Tebonnet, RICE); assay: Post-emerge test, crop safety; settings: post-emerge, 14 days after application, rating scale 0-100
Procedure, shortened: as §1

[13] = test system: field corn (Zea mays L., var. Dekalb 535, CORN); assay: Post-emerge test, crop safety; settings: post-emerge, 14 days after application, rating scale 0-100
Procedure, shortened: as §1

[14] = test system: large crabgrass (Digitaria sanguinalis, DIGSA); assay: Post-emerge test, greenhouse herbicide activity screening; settings: post-emerge, 14 days after application, rating scale 0-100
Procedure, shortened: (§3)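 Herbicidal damage is scored 0 (none) to 100 (complete plant death) two weeks after a simulated field spray. Rates span 15–1000 g ai/ha, delivered in acetone at 187 l/ha. For post-emergence treatments, plants have 2–3 leaves and the spray carries 0.25% v/v non-ionic surfactant.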

[15] = test system: green foxtail (Setaria viridis, SETVI); assay: as above; settings: post-emerge, 14 days after application, rating scale 0-100
Procedure, shortened: as §3

[16] = test system: barnyardgrass (Echinochloa crus-galli, ECHCG); assay: as above; settings: post-emerge, 14 days after application, rating scale 0-100
Procedure, shortened: as §3

[17] = test system: johnsongrass (Sorghum halepense, SORHA); assay: as above; settings: post-emerge, 14 days after application, rating scale 0-100
Procedure, shortened: as §3

[18] = test system: redroot pigweed (Amaranthus retroflexus, AMARE); assay: as above; settings: post-emerge, 14 days after application
Procedure, shortened: as §3

[19] = test system: sicklepod (Cassia obtusifolia, CASOB); assay: as above; settings: post-emerge, 14 days after application, rating scale 0-100
Procedure, shortened: as §3

[20] = test system: lambsquarters (Chenopodium album, CHEAL); assay: as above; settings: post-emerge, 14 days after application, rating scale 0-100
Procedure, shortened: as §3

[21] = test system: velvetleaf (Abutilon theophrasti, ABUTH); assay: as above; settings: post-emerge, 14 days after application, rating scale 0-100
Procedure, shortened: as §3

[22] = test system: ivyleaf morningglory (Ipomoea hederacea, IPOHE); assay: as above; settings: post-emerge, 14 days after application, rating scale 0-100
Procedure, shortened: as §3

SMILES: COc1c(Cl)cc(F)c(-n2c(=O)cc(C(F)(F)F)n(C)c2=O)c1NN=C(C(F)(F)F)C(F)(F)F [15-21]
- phytotoxicity rating DIGSA ([1]; 63 g ai/ha): 100
- phytotoxicity rating DIGSA ([1]; 250 g ai/ha): 100
- phytotoxicity rating SETVI ([2]; 63 g ai/ha): 100
- phytotoxicity rating SETVI ([2]; 250 g ai/ha): 100
- phytotoxicity rating ECHCG ([3]; 63 g ai/ha): 99
- phytotoxicity rating ECHCG ([3]; 250 g ai/ha): 100
- phytotoxicity rating SORHA ([4]; 63 g ai/ha): 100
- phytotoxicity rating SORHA ([4]; 250 g ai/ha): 100
- phytotoxicity rating CASOB ([5]; 63 g ai/ha): 100
- phytotoxicity rating CASOB ([5]; 250 g ai/ha): 100
- phytotoxicity rating CHEAL ([6]; 63 g ai/ha): 100
- phytotoxicity rating CHEAL ([6]; 250 g ai/ha): 100
- phytotoxicity rating ABUTH ([7]; 63 g ai/ha): 100
- phytotoxicity rating ABUTH ([7]; 250 g ai/ha): 100
- phytotoxicity rating IPOHE ([8]; 63 g ai/ha): 100
- phytotoxicity rating IPOHE ([8]; 250 g ai/ha): 100
- phytotoxicity rating RICE ([9]; 63 g ai/ha): 99
- phytotoxicity rating RICE ([9]; 250 g ai/ha): 100
- phytotoxicity rating CORN ([10]; 63 g ai/ha): 95
- phytotoxicity rating CORN ([10]; 250 g ai/ha): 100
- phytotoxicity rating AMARE ([11]; 63 g ai/ha): 100
- phytotoxicity rating AMARE ([11]; 250 g ai/ha): 100
- Post-emerge Herbicidal Activity RICE (crop damage rating) ([12]; 63 g ai/ha): 80
- Post-emerge Herbicidal Activity RICE (crop damage rating) ([12]; 250 g ai/ha): 90
- Post-emerge Herbicidal Activity CORN (crop damage rating) ([13]; 63 g ai/ha): 30
- Post-emerge Herbicidal Activity CORN (crop damage rating) ([13]; 250 g ai/ha): 90
- Post-emerge Herbicidal Activity DIGSA (phytotoxicity rating) ([14]; 63 g ai/ha): 30
- Post-emerge Herbicidal Activity DIGSA (phytotoxicity rating) ([14]; 250 g ai/ha): 95
- Post-emerge Herbicidal Activity SETVI (phytotoxicity rating) ([15]; 63 g ai/ha): 50
- Post-emerge Herbicidal Activity SETVI (phytotoxicity rating) ([15]; 250 g ai/ha): 90
- Post-emerge Herbicidal Activity ECHCG (phytotoxicity rating) ([16]; 63 g ai/ha): 60
- Post-emerge Herbicidal Activity ECHCG (phytotoxicity rating) ([16]; 250 g ai/ha): 100
- Post-emerge Herbicidal Activity SORHA (phytotoxicity rating) ([17]; 63 g ai/ha): 40
- Post-emerge Herbicidal Activity SORHA (phytotoxicity rating) ([17]; 250 g ai/ha): 95
- Post-emerge Herbicidal Activity AMARE (phytotoxicity rating) ([18]; 63 g ai/ha, rating scale 0-100 (0 no damage, 100 complete death)): 95
- Post-emerge Herbicidal Activity AMARE (phytotoxicity rating) ([18]; 250 g ai/ha, rating scale 0-100): 100
- Post-emerge Herbicidal Activity CASOB (phytotoxicity rating) ([19]; 63 g ai/ha): 100
- Post-emerge Herbicidal Activity CASOB (phytotoxicity rating) ([19]; 250 g ai/ha): 100
- Post-emerge Herbicidal Activity CHEAL (phytotoxicity rating) ([20]; 63 g ai/ha): 100
- Post-emerge Herbicidal Activity CHEAL (phytotoxicity rating) ([20]; 250 g ai/ha): 100
- Post-emerge Herbicidal Activity ABUTH (phytotoxicity rating) ([21]; 63 g ai/ha): 100
- Post-emerge Herbicidal Activity ABUTH (phytotoxicity rating) ([21]; 250 g ai/ha): 100
- Post-emerge Herbicidal Activity IPOHE (phytotoxicity rating) ([22]; 63 g ai/ha): 100
- Post-emerge Herbicidal Activity IPOHE (phytotoxicity rating) ([22]; 250 g ai/ha): 100
